# Article PMC11018795, “The regulatory relationship between NAMPT and PD-L1 in cancer and identification of a dual-targeting inhibitor” (EMBO Molecular Medicine, 2024)
# Values joined by “and” are separate entries in the source; they are usually repeats but may differ in a detail not shown here. Equal entries are not always repeated.
# Key:
# [1] = system: LLC OE NAMPT cells co-cultured with T cells; test: T cell-mediated tumor cell killing assay, LLC OE NAMPT; type: cell-based; conditions: Mus musculus, 100 nM, read-out: inhibition rate (T cell-mediated killing)
# Procedure: To acquire activated T cells, human peripheral blood mononuclear cells (PBMC; LTS1077, Yanjin Biological) were cultured in CTSTM AIIM VTM SFM (A3021002; Gibco) with ImmunoCult Human CD3/CD28/CD2 T-cell activator (25 µL/mL; […] Technologies, Cat#10970) for 48 h according to the manufacturer’s protocol. The experiments were performed using mouse anti-CD3 antibody (1 µg/mL; Thermo Scientific, 16-0032-82) and anti-CD28 antibody(5 µg/mL; Thermo Scientific, 16-0281-82). Cancer cells were allowed to adhere to the plates overnight and then incubated for 48 h with activated T cells in the presence or absence of DX ([…]). Different proportions of cancer cells and activated T cells were utilized according to the purpose of each experiment. The T-cell proliferation assay was 1:3; the T-cell killing assay was 1:10; T cells and cell debris were removed by PBS washing, and the living cancer cells were then quantified by a spectrometer at OD (570 nm) followed by crystal violet staining. page 12: Fig 3: […] expression patterns. […] Data was obtained from the TCGA database. (B) T cell-mediated tumor cell killing assay. T cells were co-cultured with LLC Vector, […] CQ-85, or BMS202. […] stained by crystal violet. The relative added value of activated T cells is shown below. Data are presented as mean ± SEM; *P < 0.05, **P < 0.01, ***P < 0.001, compared with control. n.s., not significant. […]
# A20 tumors = test: A20 tumor-bearing Balb/c mice; type: in vivo, mouse; conditions: for tumor inhibition rate (TIR) / tumor growth inhibition (TGI) rate at endpoint: 12 days, Fig 6B
# A2780 cells = test: Cell cycle analysis, A2780; type: cell-based, human
# Description: Supplement 44321_2024_51_MOESM5_ESM.zip/Fig4-D.xlsx, sheet "Sheet1" | column: G0/G1; S; G2/M
# A549 cells = test: MTT assay 48 h, A549; type: cell-based, human
# Procedure: (§1) Cells (5 × 10^3/well) were seeded into a 96-well plate and cultured at 37 °C in a 5% CO2 incubator. […] At the final time point, 10 μl MTT solution (5 mg/ml, Sigma, Burlington, MA, USA) was added to each well and incubated for an additional 4 h at 37 °C in a 5% CO2 incubator. Then,100 μl of DMSO was added to each well and mixed thoroughly. Optical density was measured at 492 nm using a microplate reader (Molecular Devices, San Jose, CA, USA).
# LLC OE NAMPT cells = test: Cell viability 72 h, LLC OE NAMPT (Fig 4C); type: cell-based, mouse
# Procedure: as §1, with “In vitro cell viability was determined using a Cell Counting Kit-8 (MCE) assay. Cells (5 × 10^3/well) were seeded in 96-well culture plates. After 24 h, they were incubated with various concentrations of the test compounds for 48–72 h at 37 °C in a 5% CO2 incubator. Next, 10% of the CCK-8 solution was added to each well, and the plates were incubated for an additional 4 h at 37 °C. The optical density of each well was measured at 450 nm using a multimode plate reader (Molecular Devices, San Jose, CA, USA). Cells” for “Cells”
# HCT-116 cells = test: Apoptosis assay (Annexin V/PI), HCT-116; type: cell-based, human; conditions: HCT116
# Procedure: The cells are treated with the compounds. After 48–72 h, the cells were harvested and washed twice with cold PBS. The cells were then stained with Annexin V/propidium iodide (PI) (BD Biosciences) and examined using a NovoCyte Flow Cytometer (ACEA Biosciences). Data were analyzed using NovoExpress software (ACEA Biosciences).
# LLC cells = test: MTT assay 48 h, LLC; type: cell-based, mouse
# Procedure: as §1
# PD-1/PD-L1 interaction = biological target: T1, PD-1/PD-L1 interaction (Homo sapiens, UniProt Q9NZQ7); test: In vitro PD-1/PD-L1-binding assay (Cisbio kit)
# T1 construct: purchased Cisbio 64ICP01PEG
# Procedure: The biochemical activity of the final compounds was evaluated using a PD-1/PD-L1 binding assay kit (Cisbio, cat. No. 64ICP01PEG). Experiments were performed according to the manufacturer’s instructions.
# T1 sequence (Q9NZQ7 19-238 limits assumed): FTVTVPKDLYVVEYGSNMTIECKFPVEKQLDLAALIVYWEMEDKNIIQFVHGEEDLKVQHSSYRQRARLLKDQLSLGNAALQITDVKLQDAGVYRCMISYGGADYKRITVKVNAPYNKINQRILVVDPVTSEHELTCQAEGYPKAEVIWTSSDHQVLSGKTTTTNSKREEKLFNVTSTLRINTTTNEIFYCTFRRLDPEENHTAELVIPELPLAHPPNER
compound,measurement,setting,value
CCN(CC)CCCOc1cccc(-c2cccc3c2CCN3C(=O)c2ncc(CNC(=NC#N)Nc3ccncc3)s2)c1 [LZFPN-90],inhibition at 0.1 µM,[1],~60%
same,tumor inhibition rate (TIR) / tumor growth inhibition (TGI) rate at endpoint,A20 tumors; 20 mg/kg i.p.,73.76%
same,tumor inhibition rate (TIR) / tumor growth inhibition (TGI) rate at endpoint,A20 tumors; 40 mg/kg i.p.,83.11%
same,effect on mouse organ or body weight,"A20 tumors; A20 model, FK866 20 mg/kg, LZFPN-90 20 and 40 mg/kg i.p.",no obvious effect on mouse organ or body weight
same,TIR (relative tumor weight),"A20 tumors; Balb/c mice, 20 mg/kg i.p., Fig 6E",73.8%
same,tumor inhibition rate (TIR),"A20 tumors; repeat experiment, 40 mg/kg i.p.",82.70%
same,effect on mouse organ index or body weight,"A20 tumors; repeat experiment, LZFPN-90 40 mg/kg, FK866 20 mg/kg + CQ-85 20 mg/kg i.p.",no obvious effect on mouse organ index or body weight
same,effect on body weight and organ index,A20 tumors; two animal models (A20 and LLC OE NAMPT/PD-L1),did not affect the body weight and organ index
same,Cell cycle G0/G1,A2780 cells; LZ90 20,36.54 and 37.05 and 37.41
same,Cell cycle G2/M,A2780 cells; LZ90 20,35.48 and 38.97 and 35.02
same,Cell cycle S,A2780 cells; LZ90 20,24.02 and 27.3 and 26.67
same,Cell cycle G0/G1,A2780 cells; LZ90 40,46.76 and 45.07
same,Cell cycle G2/M,A2780 cells; LZ90 40,35.5 and 29.25 and 33.56
same,Cell cycle S,A2780 cells; LZ90 40,23.4 and 20.94 and 19.12
same,Cell cycle G0/G1,A2780 cells; LZ90 60,32.3 and 44.46
same,Cell cycle G2/M,A2780 cells; LZ90 60,27.02 and 27.05
same,Cell cycle S,A2780 cells; LZ90 60,39.91 and 27.43
same,Relative inhibition (敏感性),A549 cells,0.24
same,Relative viability,"LLC OE NAMPT cells; head LLC OE NAMPT/PD-L1 (legend: LLC OE NAMPT), LZ90 0.25 (nM), 0 = 100",77.2963 and 85.357 and 93.8244
same,Relative viability,"LLC OE NAMPT cells; head LLC OE NAMPT/PD-L1, LZ90 1",81.6379 and 75.0704 and 92.5933
same,Relative viability,"LLC OE NAMPT cells; head LLC OE NAMPT/PD-L1, LZ90 4",70.2024 and 73.3725 and 88.779
same,Relative viability,"LLC OE NAMPT cells; head LLC OE NAMPT/PD-L1, LZ90 16",63.5687 and 62.4896 and 67.6771
same,Relative viability,"LLC OE NAMPT cells; head LLC OE NAMPT/PD-L1, LZ90 64",57.8886 and 54.3565 and 56.8184
same,Relative viability,"LLC OE NAMPT cells; head LLC OE NAMPT/PD-L1, LZ90 256",39.2756 and 40.3926 and 41.8466
same,Apoptotic cells (sum of both Annexin-positive quadrants),HCT-116 cells; LZ90 15 nM,9.8 and 11.59 and 10.81
same,Apoptotic cells (sum of both Annexin-positive quadrants),HCT-116 cells; LZ90 60 nM,14.57 and 17.94 and 17.19
same,Apoptotic cells (sum of both Annexin-positive quadrants),HCT-116 cells; LZ90 240 nM,13.96 and 15.34 and 15.58
same,Relative inhibition (敏感性),LLC cells; LLC,0.15
same,effect on relative viability of LLC cells,"LLC cells; MTT, 64 nM",basically had no effect
same,IC50,PD-1/PD-L1 interaction,13 nM
